Measured values from patent publication US10131652B2, “Pyrimidinyloxy benzene derivatives as herbicides” (E. I. DU PONT DE NEMOURS AND COMPANY, priority 2014, dated 2018).

Experiments:
Assay type in all cases: in vivo
[1] = test system: barnyardgrass (Echinochloa crus-galli); test: Test C flooded paddy test plant response; details: Flood, 250 g ai/ha; scale of 0 to 100 where 0 is no effect and 100 is complete control; 13 to 15 days
Outline: (§1)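 Greenhouse paddy assay, 13–15 days. Treatment into 3 cm floodwater over 2-leaf plants; visual 0–100 rating against controls.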

[2] = test system: small-flower umbrella sedge (Cyperus difformis); test: Test C flooded paddy test plant response; details: Flood, 250 g ai/ha; scale of 0 to 100 where 0 is no effect and 100 is complete control; 13 to 15 days
Outline: as §1

rice (Oryza sativa) = test: Test C flooded paddy test plant response; details: Flood, 250 g ai/ha; scale of 0 to 100 where 0 is no effect and 100 is complete control; 13 to 15 days
Outline: as §1

[3] = test system: ducksalad (Heteranthera limosa); test: Test C flooded paddy test plant response; details: Flood, 250 g ai/ha; scale of 0 to 100 where 0 is no effect and 100 is complete control; 13 to 15 days
Outline: as §1

[4] = test system: galium (catchweed bedstraw, Galium aparine); test: Test B postemergence plant response
Outline: (§2)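 Values are visual control ratings (0 to 100) recorded approximately 10 days after postemergence application to greenhouse-grown plants of 2 to 10 cm, one- to two-leaf stage, each judged against untreated controls.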

[5] = test system: blackgrass (Alopecurus myosuroides); test: Test B postemergence plant response
Outline: as §2

[6] = test system: ragweed (common ragweed, Ambrosia elatior); test: Test B pre-/postemergence plant response
Outline: (§3)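 Evaluation is visual, about 10 days after application, rating injury from 0 (none) to 100 (complete control) relative to untreated controls. Application was a preemergence soil spray on seeded pots or a postemergence spray on one- to two-leaf plants.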

kochia (Kochia scoparia) = test: Test B pre-/postemergence plant response
Outline: as §3

[7] = test system: wheat (Triticum aestivum); test: Test B pre-/postemergence plant response
Outline: as §3

[8] = test system: barnyardgrass (Echinochloa crus-galli); test: Test B pre-/postemergence plant response
Outline: as §3

[9] = test system: Italian ryegrass (Lolium multiflorum); test: Test B pre-/postemergence plant response
Outline: as §3

corn (Zea mays) = test: Test B pre-/postemergence plant response
Outline: as §3

[10] = test system: pigweed (Amaranthus retroflexus); test: Test B pre-/postemergence plant response
Outline: as §3

[11] = test system: giant foxtail (Setaria faberii); test: Test B pre-/postemergence plant response
Outline: as §3

[12] = 125 g ai/ha, postemergence, 0 to 100 scale, 0 no effect, 100 complete control
[13] = Postemergence, 31 g ai/ha, 0 to 100 scale (0 no effect, 100 complete control)
[14] = 31 g ai/ha, Preemergence, 0 to 100 scale where 0 is no effect and 100 is complete control
[15] = Preemergence, 125 g ai/ha, 0 to 100 scale (0 no effect, 100 complete control)

SMILES | Barnyardgrass plant response rating [1] | Sedge, Umbrella plant response rating [2] | Rice plant response rating (rice (Oryza sativa)) | Ducksalad plant response rating [3] | Plant response rating, Galium [4, 12] | Plant response rating, Galium [4, 13] | Plant response rating, Blackgrass [5, 12] | Plant response rating, Blackgrass [5, 13] | Plant response rating, Ragweed [6, 14] | Plant response rating, Ragweed [6, 12] | Plant response rating, Ragweed [6, 13] | Plant response rating, Kochia (kochia (Kochia scoparia); [14]) | Plant response rating, Kochia (kochia (Kochia scoparia); [12]) | Plant response rating, Kochia (kochia (Kochia scoparia); [13]) | Kochia plant response rating (kochia (Kochia scoparia); [15]) | Plant response rating, Wheat [7, 12] | Plant response rating, Wheat [7, 13] | Plant response rating, Barnyardgrass [8, 14] | Plant response rating, Barnyardgrass [8, 12] | Plant response rating, Barnyardgrass [8, 13] | also measured
Clc1cnc(Oc2ccccc2-c2ccns2)nc1 [Compound 233] | 0 | 0 | 0 | 0 | 0 | 0 | 10 | 0 | 0 | 0 | 0 | 0 | 0 | 0 | 0 | 0 | 0 | 0 | 10 | 0 | Ragweed plant response rating [6, 15]: 0; Barnyardgrass plant response rating [8, 15]: 0; Plant response rating, Ryegrass, Italian [9, 14]: 0; Plant response rating, Ryegrass, Italian [9, 12]: 0; Plant response rating, Ryegrass, Italian [9, 13]: 0; Ryegrass, Italian plant response rating [9, 15]: 0; Plant response rating, Corn (corn (Zea mays); [12]): 10; Plant response rating, Corn (corn (Zea mays); [13]): 0; Plant response rating, Pigweed [10, 14]: 0; Plant response rating, Pigweed [10, 12]: 20; Plant response rating, Pigweed [10, 13]: 0; Pigweed plant response rating [10, 15]: 0; Plant response rating, Foxtail, Giant [11, 14]: 0; Plant response rating, Foxtail, Giant [11, 12]: 0; Plant response rating, Foxtail, Giant [11, 13]: 0; Foxtail, Giant plant response rating [11, 15]: 0
Brc1cnc(Oc2ccccc2-c2ccns2)nc1 [Compound 234] | 0 | 0 | 0 | 0 | 0 | 0 | 10 | 0 | 0 | 10 | 0 | 0 | 0 | 0 | 0 | 0 | 0 | 0 | 0 | 0 | Barnyardgrass plant response rating [8, 15]: 0; Plant response rating, Ryegrass, Italian [9, 14]: 0; Plant response rating, Ryegrass, Italian [9, 12]: 0; Plant response rating, Ryegrass, Italian [9, 13]: 0; Ryegrass, Italian plant response rating [9, 15]: 0; Plant response rating, Corn (corn (Zea mays); [12]): 10; Plant response rating, Corn (corn (Zea mays); [13]): 0; Plant response rating, Pigweed [10, 14]: 0; Plant response rating, Pigweed [10, 12]: 20; Plant response rating, Pigweed [10, 13]: 0; Pigweed plant response rating [10, 15]: 0; Plant response rating, Foxtail, Giant [11, 14]: 0; Plant response rating, Foxtail, Giant [11, 12]: 0; Plant response rating, Foxtail, Giant [11, 13]: 0; Foxtail, Giant plant response rating [11, 15]: 0
CC(C)(F)c1cc(-c2ccccc2Oc2ncc(Cl)cn2)no1 [Compound 236] | 0 | 40 | 0 | 75 | 100 | 30 | 40 | 20 | 0 | 20 | 0 | 30 | 90 | 20 | 100 | 20 | 0 | 10 | 30 | 0 | Ragweed plant response rating [6, 15]: 0; Barnyardgrass plant response rating [8, 15]: 80; Plant response rating, Ryegrass, Italian [9, 14]: 0; Plant response rating, Ryegrass, Italian [9, 12]: 20; Plant response rating, Ryegrass, Italian [9, 13]: 0; Ryegrass, Italian plant response rating [9, 15]: 30; Plant response rating, Corn (corn (Zea mays); [12]): 30; Plant response rating, Corn (corn (Zea mays); [13]): 0; Plant response rating, Pigweed [10, 14]: 60; Plant response rating, Pigweed [10, 12]: 70; Plant response rating, Pigweed [10, 13]: 30; Pigweed plant response rating [10, 15]: 100; Plant response rating, Foxtail, Giant [11, 14]: 10; Plant response rating, Foxtail, Giant [11, 12]: 30; Plant response rating, Foxtail, Giant [11, 13]: 0; Foxtail, Giant plant response rating [11, 15]: 90
